Measured values reported in patent US7208481B2, “Aminodiphosphonate apolipoprotein E modulators” (ILEX Products, Inc., priority 2002, dated 2007).
“Also recorded” adds a separate entry of the source.

Key:
rat plasma apoE = experiment: In vivo rat model: plasma apoE by ELISA after 5 days of oral treatment
Experimental: Rats fed a normal diet are a convenient model recently proposed for the screening of apoE modulating compounds (Leininger-Muller & Siest, 1996, herein incorporated by reference).
(§1) This model was validated by testing the hypocholesterolemic drug gemfibrozil (200 mg/kg) as reference compound.
(§2) […] Test compounds were given as a suspension in 20% Tween-80 supplemented with 0.5% carboxymethylcellulose. The control group received 1 ml vehicle alone. After a treatment period of 5 days, rats were weighed, sacrificed by decapitation under pentobarbital anesthesia after an overnight fast. Blood was collected on EDTA and plasma was used for analysis.
(§3) ApoE was quantified by an ELISA method using a goat anti-apolipoprotein E antibody. Briefly, a dilution to 1/200 of rat plasma was coated on microtiter plates. ApoE was recognized by the polyclonal antibody; the conjugate antibody (anti-goat IgG peroxidase) was then added for substrate biochemical recognition. Apolipoprotein E was expressed as % change from mean control value. Cholesterol was measured with a commercially available enzymatic kit. Results were expressed as % change from control group.

rat plasma HDLc = experiment: In vivo rat model: plasma HDL cholesterol after 5 days of oral treatment; details: for Rat Plasma HDLc (% change): dose-response experiment, OFA rats, Day 5
Experimental: as §1, §2, §3

[1] = tested on: secretion of apoE by THP-1 cells; experiment: Secretion of apoE by THP-1 cells, apoE determined by ELISA; assay type: cell-based, human; details: reference compound for assay validation
Experimental: The THP-1 cell line was derived from the peripheral blood of a child with acute monocytic leukaemia and were obtained from the European Collection of Animal Cell Cultures (ECACC, #88081201). […] The cells were grown as non-adherent cells in RPMI 1640 culture medium, 2 mM glutamine, 20 μM 2-mercaptoethanol. Fresh medium was added to maintain cell density between 2 and 9×10^5 cells/ml. Once a week, new cultures were initiated by inoculating 10 ml of medium with 2×10^6 cells in a 75 cm^2 plate. The plates were kept at 37° C. in a 5% CO2 atmosphere. For screening, cells were seeded in 24-well plates at the density of 2×10^5 cells per well. Phorbol-12-myristat-13-acetate (PMA) was added at 0 and 5 nM to initiate TBP-1 differentiation into adherent macrophage-like cells. Vehicles, reference compounds and test compounds were added simultaneously at concentrations varying from 50 μM and incubated for 72 hours. […]
Ninety-six well-microtiter plates were coated by incubating with a 5% gelatin solution from porcine skin, bloom 60 in 50 mM carbonate-bicarbonate buffer, pH9.6 at the concentration of 200 μl/well, for 2 hours at 37° C. The coating solution was carefully removed and the sample to be analyzed was added (100 μl/well) at the appropriate dilution. […] The absorbance at 492 nm versus 620 nm was read on a microplate photometer and the results were then converted in human apoE ng equivalent. […]

[2] = OFA rats, 200 mg/kg/day p.o. for 5 days, change from mean control value
[3] = OFA rats, 50, 100, 200 mg/kg p.o. for 5 days
[4] = rats fed a normal diet, 200 mg/kg/day for 5 days

Structure (SMILES): CC1=C(/C=C/C(C)=C/C=C/C(C)=C/C(=O)O)C(C)(C)CCC1 [ATRA, all-trans retinoic acid, reference compound]
- plasma level of apoE in rats (effect in words) (rat plasma apoE; rats, dose not given): decrease
- HDL cholesterol level in rats (effect in words) (rat plasma HDLc; rats, dose not given): decrease
- production of apoE by THP-1 cells (effect in words) [1]: decreased; also recorded: potent inhibitor

Structure (SMILES): COP(=O)(OC)C(Nc1ccccn1)P(=O)(OC)OC [Compound 1, Tetramethyl N-(2-pyridyl)aminomethylenediphosphonate]
- Rat Plasma apoE (% change) (rat plasma apoE; [2]): +69 % change
- melting point: 162 to 164 °C

Structure (SMILES): CCOP(=O)(OCC)C(Nc1ccccn1)P(=O)(OCC)OCC [Compound 2, Tetraethyl N-(2-pyridyl)aminomethylenediphosphonate]
- Rat Plasma apoE (% change) (rat plasma apoE; [2]): +44 % change
- plasma apoE level, dose dependence (in words) (rat plasma apoE; [3]): increased in a dose-response way
- Rat Plasma apoE (% change) (rat plasma apoE; dose-response experiment, OFA rats, 50 mg/kg/day p.o. for 5 days, Day 5): +38 % change
- Rat Plasma apoE (% change) (rat plasma apoE; dose-response experiment, OFA rats, 100 mg/kg/day p.o. for 5 days, Day 5): +37 % change
- Rat Plasma apoE (% change) (rat plasma apoE; dose-response experiment, OFA rats, 200 mg/kg/day p.o. for 5 days, Day 5): +62 % change
- plasma HDL cholesterol (HDLc) level, dose dependence (in words) (rat plasma HDLc; [3]): increased in a dose-response way
- Rat Plasma HDLc (% change) (rat plasma HDLc; 50 mg/kg/day p.o. for 5 days): +27 % change
- Rat Plasma HDLc (% change) (rat plasma HDLc; 100 mg/kg/day p.o. for 5 days): +34 % change
- Rat Plasma HDLc (% change) (rat plasma HDLc; 200 mg/kg/day p.o. for 5 days): +68 % change

Structure (SMILES): CC(C)OP(=O)(OC(C)C)C(Nc1ccccn1)P(=O)(OC(C)C)OC(C)C [Compound 3, Tetraisopropyl N-(2-pyridyl)aminomethylenediphosphonate]
- Rat Plasma apoE (% change) (rat plasma apoE; po, 200 mg/kg/day, 120 h): +16 % change
- melting point: 98 to 100 °C

Structure (SMILES): CCOP(=O)(OCC)C(Nc1cnc2ccccc2c1)P(=O)(OCC)OCC [Compound 9, Tetraethyl N-(3-quinolinyl)aminomethylenediphosphonate]
- melting point: 156 to 158 °C

Structure (SMILES): Cc1ccc(C)c(OCCCC(C)(C)C(=O)O)c1 [gemfibrozil, reference compound]
- apoE increase in rats (model validation) (rat plasma apoE; [4]): +75%
- HDL cholesterol increase in rats (model validation) (rat plasma HDLc; [4]): +42%
